For 79 compounds, RP-LC retention time results are on record in the METLIN SMRT retention time set (Domingo-Almenara et al. 2019).

This series in a line: gradient 5% acetonitrile 3 min, to 50% in 2 min, to 85% in 15 min, held 3 min, 100 µL/min. To be noted: column: Zorbax Extend-C18 2.1 x 50 mm; eluents: water / acetonitrile, 0.1% formic acid. In a few lines: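 Pure standards were analyzed in mixtures of ~100 molecules using HPLC coupled to a quadrupole time-of-flight mass spectrometer, in both positive and negative ionization mode. Separation used a Zorbax Extend-C18 column (2.1 × 50 mm, 1.8 μm) at 100 μL/min, with water and acetonitrile each containing 0.1% formic acid. Dead and dwell volumes were 40 μL and 900 μL, and data were collected over 3 months. Retention time was read from computationally picked adduct peaks, each inspected manually.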
The compound `O=C(c1nnc(-c2ccc(S(=O)(=O)N3CCOCC3)cc2)o1)N1CCN(C2CCCCC2)CC1` yielded an RP-LC retention time of 647 s.

Compound `COCCC1CCN(C(=O)CCc2c(C)nn(C)c2C)CC1` came in with an RP-LC retention time of 616 s.

As to `COc1ccc(-c2noc(C3CC(=O)N(c4ccc(OC)c(Cl)c4)C3)n2)cc1` (centres undefined), the RP-LC retention time worked out at 947 s.

The compound `COc1ccc(Cl)c2c(=O)c3c([nH]c12)CCN(CC(=O)Nc1ccc2c(c1)OCCO2)C3` displayed an RP-LC retention time of 610 s.

`CC1CN(C(=O)N2CCC(C(=O)N3CCC(C(N)=O)CC3)CC2)c2cc(Cl)ccc2O1` (centres undefined) gave an RP-LC retention time of 679 s.

The compound `CCOc1cccc(-c2noc(Cn3ncn4nc(-c5cc(C)ccc5C)cc4c3=O)n2)c1` displayed an RP-LC retention time of 1280 s.

With `Nc1nc(SCC(=O)Nc2cccc(C(F)(F)F)c2)n[nH]1`, the RP-LC retention time amounted to 637 s.

As for `Cc1sc2ccn(CC(C)C)c(=O)c2c1C(=O)NCc1cc(F)ccc1F`, the RP-LC retention time amounted to 1040 s.

Take `O=C1CC(NC(=O)COc2ccc(F)cc2)CN1` (centres undefined): the RP-LC retention time was 586 s.

`Cc1ccc(-c2nnc(Cc3nc(-c4ccccc4)no3)o2)cc1C`: the RP-LC retention time came to 1090 s.

Compound `O=C(Cn1cnc2c(sc3nc(-c4ccccc4)ccc32)c1=O)NC1CCCCC1` displayed an RP-LC retention time of 972 s.

Regarding `CCNC(=O)C1CCCN(c2nc3ncn(CC(=O)NCc4ccccc4)c(=O)c3s2)C1` (centres undefined), the RP-LC retention time stood at 638 s.

With `COc1cccc(NC(=O)NCCn2c(C(F)(F)F)nc3cccnc32)c1`, the RP-LC retention time was determined as 698 s.

As for `COc1ccc(-c2ccc(=O)n(Cc3nc(-c4ccccc4OC)no3)n2)cc1`, the RP-LC retention time came out at 891 s.

In turn, `Cc1ccn2c(NC(=O)c3ccc(C)c(C)c3)c(-c3ccc(F)cc3)nc2c1` came in with an RP-LC retention time of 737 s.

`CN1CCN(CCCNC(=O)c2cc3occc3c(Nc3ccc(Cl)cc3)n2)CC1`: the RP-LC retention time is 620 s.

`O=C1COc2ccccc2N1Cc1nc(-c2cccc(Br)c2)no1` came in with an RP-LC retention time of 1120 s.

Compound `COc1ccccc1C(=O)N1CCCC1c1cc(C(C)C)no1` (centres undefined) came in with an RP-LC retention time of 831 s.

`COc1cccc(-c2cn3ccn(-c4ccc(F)c(F)c4)c(=O)c3n2)c1`: the RP-LC retention time amounted to 844 s.

Turning to `CCCNC(=O)C1CCCN(c2nc3ncn(CC(=O)Nc4ccc(C(C)C)cc4)c(=O)c3s2)C1` (centres undefined), the RP-LC retention time is 801 s.

In turn, `CSc1cccc(NC(=O)N2CCC(c3nc(C(=O)N4CCCCC4)c(C)o3)CC2)c1` displayed an RP-LC retention time of 828 s.

The compound `CCCc1ccc(S(=O)(=O)N2CCC3(CC2)NCCN=C3NCc2ccccc2)cc1` gave an RP-LC retention time of 809 s.

As for `CCOc1ccc(-c2[nH]nc3nc(-c4cccc(OC)c4)cc(C(=O)O)c23)cc1`, the RP-LC retention time turned out to be 821 s.

In turn, `CCC(C)CC(=O)N1CCCN(C2=NS(=O)(=O)C(c3ccccc3)=C2C)CC1` (centres undefined) came in with an RP-LC retention time of 828 s.

Compound `CC(C)NC(=O)c1nc2ccccc2n(C)c1=O` gave an RP-LC retention time of 659 s.

For `CNC(=O)Nc1cc(C)n(Cc2ccccc2)n1`, the RP-LC retention time was determined as 738 s.

For the compound `O=C(Cn1c(=O)n(-c2ccccc2)c2ncccc21)NCCCN1CCCC1`, the RP-LC retention time worked out at 586 s.

Compound `Cc1cc(C)c(-c2noc(C)n2)c(NC(=O)c2ccccc2Br)n1` had an RP-LC retention time of 762 s.

The compound `Cc1ccc(NC(=O)Cn2c(-c3cnccn3)nc(C)c(C)c2=O)cc1C` registered an RP-LC retention time of 774 s.

As for `Cc1ccc(-c2nnc(-c3cccc(S(=O)(=O)NC(C)(C)CO)c3)o2)cc1`, the RP-LC retention time was 955 s.

Compound `CCC1CN(C(=O)N2CCC(C(=O)NCCN3CCN(CC)CC3)CC2)c2cc(C)ccc2O1` (centres undefined) showed an RP-LC retention time of 616 s.

`CC(C)n1cnc(S(=O)(=O)N2CCCC(C(=O)Nc3cccc(Cl)c3)C2)c1` (centres undefined) yielded an RP-LC retention time of 842 s.

In turn, `Cn1c(CN2CCN(C(=O)NC(c3ccccc3)c3ccccc3)CC2)nc2ccccc21` came in with an RP-LC retention time of 620 s.

With `Nc1c(C(=O)c2ccccc2)sc2[nH]c(=O)c(C(=O)O)cc12`, the RP-LC retention time came to 733 s.

Turning to `COc1ccc(Cl)cc1C(=O)Nc1nc2c(s1)Cc1c(Br)ccc(OC)c1-2`, the RP-LC retention time was 1350 s.

For the compound `CCCNC(=O)c1cn2ccnc(-c3ccc(C)cc3)c2n1`, the RP-LC retention time stood at 878 s.

In the case of `CCCC(=O)N1CCC(C(=O)N2c3ccccc3CC2C)CC1` (centres undefined), the RP-LC retention time turned out to be 794 s.

In turn, `COc1cccc(C(=O)Nc2cccc(-c3nc4ncccc4o3)c2)c1` returned an RP-LC retention time of 781 s.

`O=C(C1CCN(c2ncnc3c2nc2n3CCCCC2)CC1)N1CCN(c2ncccn2)CC1` had an RP-LC retention time of 669 s.

Consider `O=C(NCCn1c(=O)n(Cc2ccc(F)cc2)c2cccnc21)c1nccc2ccccc12`, for which the RP-LC retention time stood at 840 s.

`NC(=O)c1ccc2c(c1)CCCN2S(=O)(=O)c1ccccc1` gave an RP-LC retention time of 726 s.

In the case of `Cc1ccc(C)c(C(=O)Nc2cc(-c3cccnc3)no2)c1`, the RP-LC retention time was determined as 585 s.

`COc1ccc(C(=O)NC2CCN(c3ccc(N4CCSCC4)nn3)CC2)c(OC)c1` had an RP-LC retention time of 644 s.

In turn, `Cc1nc(Nc2ccc(Br)cn2)sc1C(=O)NC1CC1` gave an RP-LC retention time of 735 s.

The compound `Cc1ccc(-c2noc(-c3cccc(S(=O)(=O)Nc4cccc(C#N)c4)c3)n2)cc1` came in with an RP-LC retention time of 1160 s.

As for `Cc1ccc(-n2nc(C)c(S(=O)(=O)N3CCC(C(=O)N4CCN(C)CC4)CC3)c2C)cc1`, the RP-LC retention time came to 629 s.

`O=S(=O)(c1ccc(-c2noc(COc3ccc(Cl)cc3)n2)cc1)N1CCOCC1` came in with an RP-LC retention time of 1090 s.

The compound `O=C(Nc1ccc(Cl)cc1)C1CCN(C(=O)c2ncn3c2COC(c2ccc(F)cc2)C3)CC1` (centres undefined) gave an RP-LC retention time of 874 s.

As to `CN1C(=O)c2cccnc2Sc2cc(C(=O)NC3CCCCC3)ccc21`, the RP-LC retention time turned out to be 773 s.

`CSc1ccccc1C(=O)Nc1ccc2cn[nH]c2c1` displayed an RP-LC retention time of 673 s.

In the case of `Cc1csc(-c2cc(S(=O)(=O)N3CCc4ccccc4C3)c(C)s2)n1`, the RP-LC retention time came to 1160 s.

On to `CCCCn1cc(S(=O)(=O)NCc2ccccn2)c2cccnc21`, for which the RP-LC retention time came out at 671 s.

`O=C(Nc1ccc2c(c1)OCCO2)C1CCCN(S(=O)(=O)Cc2ccc(F)cc2)C1` (centres undefined) came in with an RP-LC retention time of 905 s.

Turning to `CC(C)NC(=O)c1ccc(OCC2CCN(C(=O)Cc3ccc(Cl)cc3)CC2)cc1`, the RP-LC retention time was found to be 927 s.

Turning to `Cc1cc(N2CCCCC2)nc(N2CCN(C(=O)C3CCCC3)CC2)n1`, the RP-LC retention time is 713 s.

Compound `CN(C)C(=O)Cn1c(C(F)(F)F)nc2cc3c(cc21)OCCO3` came in with an RP-LC retention time of 694 s.

Take `O=C(Cn1nc2c3cc(-c4ccc(F)cc4)nn3ccn2c1=O)NC1CCCC1`: the RP-LC retention time came to 824 s.

`Cc1ccc(CNC(=O)c2nc(Cn3c(=O)oc4ccc(Cl)cc43)no2)cc1` came in with an RP-LC retention time of 983 s.

In turn, `Cc1cc(C)c(S(=O)(=O)Nc2ccc(Cn3cncn3)cc2)c(C)c1` gave an RP-LC retention time of 798 s.

For the compound `CC(C)Oc1ccc(CNC(=O)c2nc(N3CCOCC3)c3ccccc3n2)cc1`, the RP-LC retention time is 738 s.

In turn, `CCCn1c(=O)c2sc(N3CCCC3)nc2n(CC(=O)NCCC2=CCCCC2)c1=O` returned an RP-LC retention time of 997 s.

As for `COc1ccc(C2=Nc3ccccc3N(CC(=O)Nc3cc(OC)ccc3OC)C(=O)C2)cc1`, the RP-LC retention time was determined as 1020 s.

The compound `Cc1ccccc1Nc1nc(-c2ccccc2)cs1` had an RP-LC retention time of 1120 s.

The compound `CN(C)C(=O)c1csc(S(=O)(=O)N2CCC(C(=O)NC3CCCCCCC3)CC2)c1` showed an RP-LC retention time of 835 s.

`O=C(O)Cc1sc(-c2ccccc2)nc1-c1ccc(Cl)cc1`: the RP-LC retention time turned out to be 1140 s.

As to `CC1(C(=O)NCc2ccc(Cl)cc2)CN(S(C)(=O)=O)CC(=O)N1Cc1ccccc1` (centres undefined), the RP-LC retention time was 858 s.

Take `O=C(NCc1ccc(Br)cc1)c1cn2nc(Cl)ccc2n1`: the RP-LC retention time is 882 s.

The compound `O=C(NCc1ccccc1)C1CCc2nc(N3CCN(C(=O)C4CCC4)CC3)sc2C1` (centres undefined) registered an RP-LC retention time of 578 s.

The compound `Cn1cc(S(=O)(=O)N2CCC(C(=O)NCc3cccnc3)CC2)cc1C(=O)N1CCCC1` yielded an RP-LC retention time of 674 s.

With `Cc1ccc(Cn2c(=O)c3sccc3n(Cc3nc(-c4ccc(OC(C)C)cc4)no3)c2=O)cc1`, the RP-LC retention time stood at 1280 s.

`O=C(NCCc1csc(-c2ccccc2)n1)C1CCN(S(=O)(=O)c2ccc(Cl)cc2)CC1` had an RP-LC retention time of 984 s.

In turn, `CCOC(=O)C1=C(CN2CCN(C(C)CC)CC2)NC(=O)NC1c1ccc(F)cc1` (centres undefined) yielded an RP-LC retention time of 623 s.

As for `CCOC(=O)c1c(C)[nH]c(C)c1S(=O)(=O)N1CCC(C(=O)NCCc2sccc2C)CC1`, the RP-LC retention time is 794 s.

As to `CC(C)NC(=O)c1ccc(-c2ccc(Cl)cc2)o1`, the RP-LC retention time was determined as 874 s.

`Cc1ccn2cc(C(=O)NCc3cccs3)nc2c1`: the RP-LC retention time was 591 s.

Take `Cn1cc(S(=O)(=O)N2CCCCC2)cc1C(=O)N1CCN(c2cccc(Cl)c2)CC1`: the RP-LC retention time worked out at 1050 s.

As for `O=C(NCc1ccccc1)c1ncccn1`, the RP-LC retention time is 609 s.

`CC(C)CNC(=O)N1CCN(c2nc3ccccc3n(Cc3ccccc3)c2=O)CC1` came in with an RP-LC retention time of 986 s.

`COc1ccc(-c2ccnc3nc(Cc4cc(F)cc(F)c4)nn23)c(F)c1` came in with an RP-LC retention time of 973 s.
